This passage reports IC50 results from patent publication US20090311217A1, “3-SUBSTITUTED-1H-INDOLE COMPOUNDS, THEIR USE AS MTOR KINASE AND PI3 KINASE INHIBITORS, AND THEIR SYNTHESES” (priority 2008, published 2009).

Holding throughout (format): biochemical
One experiment concerns the target T1, human TOR (Homo sapiens, UniProt P42345).
T1 construct: FLAG
The experiment in a line: mTOR enzyme assay (DELFIA, His6-S6K substrate). Particulars: read-out: mTOR Kinase Avg. IC50.

The next experiment addresses PI3K-gamma (Homo sapiens, UniProt P48736). Kind of experiment: PI3K-gamma fluorescence polarization assay. In short, it runs like this: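 Reactions used 5 ng enzyme with 2.5 μM diC8-PI(4,5)P2 and 25 μM ATP in 5 mM HEPES pH 7, 2.5 mM MgCl2, run 1 h at 25° C. After an EDTA quench (10 mM), 100 nM GST-GRP1 PH domain and 5 nM BODIPY-TMR-IP4 were added and fluorescence polarization was read.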
In general terms: In fluorescence polarisation assays a small probe gives low polarisation when free and higher when bound to something large.

The next experiment addresses PI3K-alpha (Homo sapiens, UniProt P42336). Kind of experiment: PI3K-alpha fluorescence polarization assay. Particulars: read-out: PI3Kα Avg. IC50.

Read-outs that look alike come from different tables or passages of the source.

PI3K-gamma, sequence (P48736 whole entry, species assumed, the tested form may be a part): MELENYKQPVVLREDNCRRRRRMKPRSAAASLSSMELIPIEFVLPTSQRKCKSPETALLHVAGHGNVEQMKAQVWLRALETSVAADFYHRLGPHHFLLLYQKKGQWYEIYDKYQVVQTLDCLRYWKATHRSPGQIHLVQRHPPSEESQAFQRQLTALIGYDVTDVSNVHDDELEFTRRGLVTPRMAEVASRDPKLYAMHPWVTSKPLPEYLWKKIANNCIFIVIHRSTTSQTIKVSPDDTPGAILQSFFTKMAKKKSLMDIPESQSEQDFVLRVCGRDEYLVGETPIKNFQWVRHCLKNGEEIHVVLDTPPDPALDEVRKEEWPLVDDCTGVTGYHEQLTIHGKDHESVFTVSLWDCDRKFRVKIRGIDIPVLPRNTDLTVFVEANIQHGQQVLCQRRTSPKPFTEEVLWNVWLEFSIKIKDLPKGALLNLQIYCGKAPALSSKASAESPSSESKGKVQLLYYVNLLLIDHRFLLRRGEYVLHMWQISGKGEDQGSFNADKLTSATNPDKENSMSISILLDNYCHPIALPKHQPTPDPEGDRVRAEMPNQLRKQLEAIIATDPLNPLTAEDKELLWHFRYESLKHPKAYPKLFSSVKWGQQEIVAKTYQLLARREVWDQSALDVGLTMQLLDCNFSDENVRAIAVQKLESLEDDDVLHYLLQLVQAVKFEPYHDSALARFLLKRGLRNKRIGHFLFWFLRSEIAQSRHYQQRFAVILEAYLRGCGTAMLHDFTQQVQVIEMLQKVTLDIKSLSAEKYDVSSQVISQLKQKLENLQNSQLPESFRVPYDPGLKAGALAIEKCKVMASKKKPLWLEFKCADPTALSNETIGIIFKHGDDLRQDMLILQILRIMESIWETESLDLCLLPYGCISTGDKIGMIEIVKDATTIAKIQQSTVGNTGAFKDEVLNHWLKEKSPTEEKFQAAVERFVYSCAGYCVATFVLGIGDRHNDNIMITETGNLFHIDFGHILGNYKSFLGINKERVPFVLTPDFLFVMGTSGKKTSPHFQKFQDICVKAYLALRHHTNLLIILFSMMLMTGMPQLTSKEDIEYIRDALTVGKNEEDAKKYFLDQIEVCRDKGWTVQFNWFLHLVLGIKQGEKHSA
PI3K-alpha, sequence (P42336 whole entry, species assumed): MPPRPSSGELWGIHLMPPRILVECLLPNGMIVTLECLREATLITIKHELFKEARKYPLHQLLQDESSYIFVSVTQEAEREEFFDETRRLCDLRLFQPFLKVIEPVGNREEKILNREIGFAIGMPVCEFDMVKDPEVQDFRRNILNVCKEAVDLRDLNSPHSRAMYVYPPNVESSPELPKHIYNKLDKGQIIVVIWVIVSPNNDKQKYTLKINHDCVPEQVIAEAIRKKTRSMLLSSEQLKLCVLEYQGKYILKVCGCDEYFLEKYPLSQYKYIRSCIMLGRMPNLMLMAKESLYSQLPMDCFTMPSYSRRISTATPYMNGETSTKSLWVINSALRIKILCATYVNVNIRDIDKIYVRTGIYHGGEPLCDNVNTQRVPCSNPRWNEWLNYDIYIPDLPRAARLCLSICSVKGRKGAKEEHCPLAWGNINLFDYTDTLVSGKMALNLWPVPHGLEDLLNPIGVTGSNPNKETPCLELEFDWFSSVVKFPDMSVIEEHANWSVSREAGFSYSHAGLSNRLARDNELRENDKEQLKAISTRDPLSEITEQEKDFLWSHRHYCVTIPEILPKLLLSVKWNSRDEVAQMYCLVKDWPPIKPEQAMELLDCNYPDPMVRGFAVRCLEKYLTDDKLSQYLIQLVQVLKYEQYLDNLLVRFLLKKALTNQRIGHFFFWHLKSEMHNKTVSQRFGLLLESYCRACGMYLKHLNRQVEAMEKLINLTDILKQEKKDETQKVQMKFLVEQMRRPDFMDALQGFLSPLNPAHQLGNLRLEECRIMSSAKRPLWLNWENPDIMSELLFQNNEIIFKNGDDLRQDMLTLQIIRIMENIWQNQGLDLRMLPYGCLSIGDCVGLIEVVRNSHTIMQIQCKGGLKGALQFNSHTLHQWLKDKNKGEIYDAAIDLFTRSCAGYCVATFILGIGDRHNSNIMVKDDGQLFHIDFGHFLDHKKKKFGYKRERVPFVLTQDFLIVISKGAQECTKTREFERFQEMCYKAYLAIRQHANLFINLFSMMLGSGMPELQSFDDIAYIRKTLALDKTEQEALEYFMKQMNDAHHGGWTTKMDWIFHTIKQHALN
PI3K-alpha, sequence (P27986 whole entry partner, species assumed): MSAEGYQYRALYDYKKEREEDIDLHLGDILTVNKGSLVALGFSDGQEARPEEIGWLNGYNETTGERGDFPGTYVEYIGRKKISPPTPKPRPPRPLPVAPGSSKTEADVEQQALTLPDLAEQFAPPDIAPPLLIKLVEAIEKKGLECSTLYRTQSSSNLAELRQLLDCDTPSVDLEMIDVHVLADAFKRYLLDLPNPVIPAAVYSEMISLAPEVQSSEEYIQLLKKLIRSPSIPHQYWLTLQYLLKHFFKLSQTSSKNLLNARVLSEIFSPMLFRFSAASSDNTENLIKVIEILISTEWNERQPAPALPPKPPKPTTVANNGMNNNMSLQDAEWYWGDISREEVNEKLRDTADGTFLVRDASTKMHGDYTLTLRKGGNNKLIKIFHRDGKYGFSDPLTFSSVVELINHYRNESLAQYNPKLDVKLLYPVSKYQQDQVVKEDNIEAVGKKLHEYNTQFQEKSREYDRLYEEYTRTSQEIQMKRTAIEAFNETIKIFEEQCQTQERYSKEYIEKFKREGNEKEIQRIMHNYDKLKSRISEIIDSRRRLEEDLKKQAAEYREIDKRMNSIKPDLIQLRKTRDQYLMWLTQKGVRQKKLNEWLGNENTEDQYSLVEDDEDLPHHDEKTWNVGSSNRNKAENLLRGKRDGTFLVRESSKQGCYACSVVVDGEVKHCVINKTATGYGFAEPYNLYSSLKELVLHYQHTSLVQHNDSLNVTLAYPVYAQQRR

In general, IC50 refers to the midpoint of a concentration-inhibition curve. On to `CNC(=O)Nc1ccc2c(c1)C(=O)/C(=C/c1c(-c3c(C)nn(C)c3C)[nH]c3c(C)cc(OC)cc13)O2` [Compound 726, 1-[(2Z)-2-{[5-methoxy-7-methyl-2-(1,3,5-trimethyl-1H-pyrazol-4-yl)-1H-indol-3-yl]methylidene}-3-oxo-2,3-dihydro-1-benzofuran-5-yl]-3-methylurea], for which the values for the IC50 on human TOR, against PI3K-gamma (PI3Kγ Avg. IC50) and at PI3K-alpha were 18 nM, 13.7 nM and 1.37 nM, respectively.
The corresponding values for `O=C1C(=Cc2c(-c3cccc(O)c3)[nH]c3ccccc23)Oc2cc(O)cc(O)c21` [Example 205, 4,6-dihydroxy-2-{[2-(3-hydroxyphenyl)-1H-indol-3-yl]methylene}-1-benzofuran-3(2H)-one] are 110 nM, 2370 nM and 479 nM.
The corresponding values for `COc1ccc2c(c1)c(/C=C1\Oc3ccc(NC(=O)Nc4ccc(N(C)C)cc4)cc3C1=O)c(C)n2CCN1CCN(C)CC1` [Compound 633, 1-[4-(dimethylamino)phenyl]-3-[(2Z)-2-({5-methoxy-2-methyl-1-[2-(4-methylpiperazin-1-yl)ethyl]-1H-indol-3-yl}methylidene)-3-oxo-2,3-dihydro-1-benzofuran-5-yl]urea] are 225 nM, 1910 nM and 3.87 nM.
For the molecule `COc1ccc2c(c1)c(/C=C1\Oc3cc(O)cc(O)c3C1=O)c(C)n2CC(=O)N(C)C` [Example 322, 2-{3-[(Z)-(4,6-Dihydroxy-3-oxo-1-benzofuran-2(3H)-ylidene)methyl]-5-methoxy-2-methyl-1H-indol-1-yl}-N,N-dimethylacetamide], the IC50 on human TOR was 23 nM; against PI3K-gamma (PI3Kγ Avg. IC50), 178 nM; on PI3K-alpha, 39.8 nM.
The corresponding values for `COc1ccc2c(c1)c(/C=C1\Oc3cc(-c4ccc(NC(C)=O)cc4)ccc3C1=O)cn2CCCN(C)C` [Example 426, N-{4-[(2Z)-2-({1-[3-(Dimethylamino)propyl]-5-methoxy-1H-indol-3-yl}methylene)-3-oxo-2,3-dihydro-1-benzofuran-6-yl]phenyl}acetamide] are more than 20000 nM, more than 10000 nM and 6250 nM.
The corresponding values for `Cn1cc(/C=C2\Oc3cc(O)cc(O)c3C2=O)c2c(-c3ccncc3)cccc21` [Example 373, (2Z)-4,6-Dihydroxy-2-[(1-methyl-4-pyridin-4-yl-1H-indol-3-yl)methylene]-1-benzofuran-3(2H)-one] are 300 nM, more than 10000 nM and 4770 nM.
The corresponding values for `CCn1c(C)c(/C=C2\Oc3ccc(NC(=O)Nc4ccc(C(=O)N5CCOCC5)cc4)cc3C2=O)c2cc(OC)ccc21` [Compound 686, 1-{(2Z)-2-[(1-ethyl-5-methoxy-2-methyl-1H-indol-3-yl)methylidene]-3-oxo-2,3-dihydro-1-benzofuran-5-yl}-3-[4-(morpholin-4-ylcarbonyl)phenyl]urea] are 110 nM, 5 nM and 0.7 nM.
Regarding `CCn1c(C)c(/C=C2\Oc3ccc(NC(=O)Nc4ccc(CN(C)C)cc4)cc3C2=O)c2cc(OC)ccc21` [Compound 719, 1-{4-[(dimethylamino)methyl]phenyl}-3-{(2Z)-2-[(1-ethyl-5-methoxy-2-methyl-1H-indol-3-yl)methylidene]-3-oxo-2,3-dihydro-1-benzofuran-5-yl}urea], the IC50 on human TOR came out at 275 nM; against PI3K-gamma (PI3Kγ Avg. IC50), 41.5 nM; on PI3K-alpha it was 3.1 nM.
Consider `Cc1[nH]c2ccc(Cl)cc2c1C=C1Oc2cc(O)cc(O)c2C1=O` [Example 215, 2-[(5-chloro-2-methyl-1H-indol-3-yl)methylene]-4,6-dihydroxy-1-benzofuran-3(2H)-one], for which the results for the IC50 at human TOR, against PI3K-gamma (PI3Kγ Avg. IC50) and at PI3K-alpha were 290 nM, 2610 nM and 264 nM, respectively.
As to `CNC(=O)Nc1ccc2c(c1)C(=O)/C(=C/c1c(-c3nc(C(C)C)no3)n(CCN3CCN(C)CC3)c3ccc(OC)cc13)O2` [Compound 621, 1-[(2Z)-2-({5-methoxy-2-[3-(1-methylethyl)-1,2,4-oxadiazol-5-yl]-1-[2-(4-methylpiperazin-1-yl)ethyl]-1H-indol-3-yl}methylidene)-3-oxo-2,3-dihydro-1-benzofuran-5-yl]-3-methylurea], the IC50 on human TOR turned out to be 225 nM; at PI3K-gamma (read-out: PI3Kγ Avg. IC50), 355 nM; at PI3K-alpha, 3.5 nM.
In the case of `COc1ccc2c(c1)c(/C=C1\Oc3cc(O)cc(O)c3C1=O)c(-c1cncnc1)n2CCN1CCN(C)CC1` [Example 463, (2Z)-4,6-Dihydroxy-2-({5-methoxy-1-[2-(4-methylpiperazin-1-yl)ethyl]-2-pyrimidin-5-yl-1H-indol-3-yl}methylene)-1-benzofuran-3(2H)-one], the half-maximal inhibitory concentration (IC50) is 2000 nM at human TOR, 971 nM against PI3K-gamma (PI3Kγ Avg. IC50) and 51.5 nM at PI3K-alpha.
The like results for `Cc1noc(C)c1-c1[nH]c2ccccc2c1C=C1Oc2cc(O)cc(O)c2C1=O` [Example 204, 2-{[2-(3,5-dimethylisoxazol-4-yl)-1H-indol-3-yl]methylene}-4,6-dihydroxy-1-benzofuran-3(2H)-one] were, in that order, 190 nM, 6430 nM and 1160 nM.
The corresponding values for `COc1ccc2[nH]c(-c3c(C)nn(C)c3C)c(/C=C3\Oc4ccc(NC(=O)Nc5cccc(C(=O)N(C)CCN(C)C)c5)cc4C3=O)c2c1` [Compound 707, N-[2-(dimethylamino)ethyl]-3-({[(2Z)-2-{[5-methoxy-2-(1,3,5-trimethyl-1H-pyrazol-4-yl)-1H-indol-3-yl]methylidene}-3-oxo-2,3-dihydro-1-benzofuran-5-yl]carbamoyl}amino)-N-methylbenzamide] are 85 nM, 123 nM and 8 nM.
With `CN(C)c1cccc(-c2cccc3c2c(/C=C2\Oc4cc(O)cc(O)c4C2=O)cn3C)c1` [Example 398, (2Z)-2-({4-[3-(Dimethylamino)phenyl]-1-methyl-1H-indol-3-yl}methylene)-4,6-dihydroxy-1-benzofuran-3(2H)-one], the IC50 at human TOR worked out at 111 nM; on PI3K-gamma (PI3Kγ Avg. IC50), 5260 nM; on PI3K-alpha, 2760 nM.
As for `COc1ccc2c(c1)c(/C=C1\Oc3ccc(NC(=O)Nc4ccc(NC(=O)CCN(C)C)cc4)cc3C1=O)c(C)n2CCN1CCN(C)CC1` [Compound 685, N-[4-({[(2Z)-2-({5-methoxy-2-methyl-1-[2-(4-methylpiperazin-1-yl)ethyl]-1H-indol-3-yl}methylidene)-3-oxo-2,3-dihydro-1-benzofuran-5-yl]carbamoyl}amino)phenyl]-N3,N3-dimethyl-b-alaninamide], the IC50 stood at 16 nM on human TOR, 115 nM against PI3K-gamma (PI3Kγ Avg. IC50) and 0.8 nM at PI3K-alpha.
Regarding `CNC(=O)Nc1ccc2c(c1)C(=O)/C(=C/c1c(-c3nc(C4CC4)no3)n(CCN3CCN(C)CC3)c3ccc(OC)cc13)O2` [Compound 626, 1-[(2Z)-2-({2-(3-cyclopropyl-1,2,4-oxadiazol-5-yl)-5-methoxy-1-[2-(4-methylpiperazin-1-yl)ethyl]-1H-indol-3-yl}methylidene)-3-oxo-2,3-dihydro-1-benzofuran-5-yl]-3-methylurea], the results for the IC50 at human TOR, on PI3K-gamma (PI3Kγ Avg. IC50) and on PI3K-alpha were 66 nM, 470 nM and 3 nM, respectively.
The like results for `COc1ccc2[nH]cc(C=C3Oc4cc(S(C)(=O)=O)ccc4C3=O)c2c1` [Example 436, 2-[(5-Methoxy-1H-indol-3-yl)methylene]-6-(methylsulfonyl)-1-benzofuran-3(2H)-one] were, in that order, more than 20000 nM, more than 10000 nM and more than 10000 nM.
On to `CCOC(=O)c1ccc(-c2cccc3c2c(/C=C2\Oc4cc(O)cc(O)c4C2=O)cn3C)cc1` [Example 382, Ethyl 4-{3-[(Z)-(4,6-Dihydroxy-3-oxo-1-benzofuran-2(3H)-ylidene)methyl]-1-methyl-1H-indol-4-yl}benzoate], for which the figures for the IC50 on human TOR, against PI3K-gamma (PI3Kγ Avg. IC50) and at PI3K-alpha were 535 nM, 4680 nM and 2920 nM, respectively.
Consider `CNC(=O)Nc1ccc2c(c1)C(=O)/C(=C/c1c(-c3c(C)nn(C)c3C)n(CCN(C)CCN(C)C)c3ccc(OC)cc13)O2` [Compound 665, 1-[(2Z)-2-{[1-(2-{[2-(dimethylamino)ethyl](methyl)amino}ethyl)-5-methoxy-2-(1,3,5-trimethyl-1H-pyrazol-4-yl)-1H-indol-3-yl]methylidene}-3-oxo-2,3-dihydro-1-benzofuran-5-yl]-3-methylurea], for which the IC50 was determined as 39 nM on human TOR, 127 nM against PI3K-gamma (PI3Kγ Avg. IC50) and 5.5 nM at PI3K-alpha.
The like results for `O=C1C(=Cc2c(-c3ccccc3)n(CCN3CCCC3)c3ccccc23)Oc2cc(O)cc(O)c21` [Example 157, 4,6-dihydroxy-2-{[2-phenyl-1-(2-pyrrolidin-1-ylethyl)-1H-indol-3-yl]methylene}-1-benzofuran-3(2H)-one] were, in that order, 2500 nM, 2430 nM and 1520 nM.
Regarding `COc1ccc2c(c1)c(/C=C1\Oc3c(ccc(O)c3Cl)C1=O)c(C)n2CCCN(C)C` [Example 361, (2Z)-7-Chloro-2-({1-[3-(dimethylamino)propyl]-5-methoxy-2-methyl-1H-indol-3-yl}methylene)-6-hydroxy-1-benzofuran-3(2H)-one], the IC50 at human TOR was more than 800 nM; against PI3K-gamma (PI3Kγ Avg. IC50), 3440 nM; on PI3K-alpha, 306 nM.
The corresponding values for `Cn1cc(/C=C2\Oc3cc(O)cc(O)c3C2=O)c2c(-c3ccc(NCCN4CCOCC4)nc3)cccc21` [Example 402, (2Z)-4,6-Dihydroxy-2-[(1-methyl-4-{6-[(2-morpholin-4-ylethyl)amino]pyridin-3-yl}-1H-indol-3-yl)methylene]-1-benzofuran-3(2H)-one] are 355 nM, 5940 nM and 3740 nM.
